Data reported in the NIST ThermoML archive (doi:10.1016/j.jct.2019.04.010).

Assay: xn = mol fraction of the nth substance listed
Conditions: 100 kPa, Liquid; for viscosity: Concentric cylinders viscometry; for mass density: Vibrating tube method

CCCCn1cc[n+](C)c1.O=[N+]([O-])[O-] [1-butyl-3-methylimidazolium nitrate] + CCC(C)O
Conditions | mass density [kg/m3] | viscosity [mPa·s]
293.15 K, x1 = 0.0813 | 860.4 | 5.41
293.15 K, x1 = 0.1595 | 904.7 | 7.32
293.15 K, x1 = 0.2402 | 944.9 | 10.17
293.15 K, x1 = 0.35 | 991.2 | 15.43
293.15 K, x1 = 0.4403 | 1023.7 | 21.65
293.15 K, x1 = 0.5597 | 1060.8 | 33.63
293.15 K, x1 = 0.6503 | 1085.4 | 46.65
293.15 K, x1 = 0.7398 | 1107 | 65
293.15 K, x1 = 0.8502 | 1130.6 | 100.4
293.15 K, x1 = 0.9399 | 1147.7 | 156.4
293.15 K, x1 = 1 | 1158.3 | 223.54
298.15 K, x1 = 0.0813 | 856.7 | 4.47
298.15 K, x1 = 0.1595 | 901.2 | 6.12
298.15 K, x1 = 0.2402 | 941.3 | 8.37
298.15 K, x1 = 0.35 | 987.7 | 12.73
298.15 K, x1 = 0.4403 | 1020.3 | 17.92
298.15 K, x1 = 0.5597 | 1057.5 | 27.57
298.15 K, x1 = 0.6503 | 1082.1 | 38.2
298.15 K, x1 = 0.7398 | 1103.8 | 52.3
298.15 K, x1 = 0.8502 | 1127.6 | 79.2
298.15 K, x1 = 0.9399 | 1144.7 | 119
298.15 K, x1 = 1 | 1155.2 | 168.97
303.15 K, x1 = 0.0813 | 852.6 | 3.85
303.15 K, x1 = 0.1595 | 897.3 | 5.31
303.15 K, x1 = 0.2402 | 937.4 | 7.21
303.15 K, x1 = 0.35 | 984.1 | 10.87
303.15 K, x1 = 0.4403 | 1016.8 | 15.15
303.15 K, x1 = 0.5597 | 1054.2 | 22.92
303.15 K, x1 = 0.6503 | 1078.9 | 30.82
303.15 K, x1 = 0.7398 | 1100.8 | 41.3
303.15 K, x1 = 0.8502 | 1124.6 | 62.3
303.15 K, x1 = 0.9399 | 1141.8 | 92
303.15 K, x1 = 1 | 1152.3 | 125.36
308.15 K, x1 = 0.0813 | 848.6 | 3.32
308.15 K, x1 = 0.1595 | 893.3 | 4.58
308.15 K, x1 = 0.2402 | 933.6 | 6.25
308.15 K, x1 = 0.35 | 980.4 | 9.38
308.15 K, x1 = 0.4403 | 1013.3 | 12.93
308.15 K, x1 = 0.5597 | 1050.9 | 19.27
308.15 K, x1 = 0.6503 | 1075.7 | 25.57
308.15 K, x1 = 0.7398 | 1097.6 | 33.2
308.15 K, x1 = 0.8502 | 1121.7 | 48.8
308.15 K, x1 = 0.9399 | 1138.9 | 70.7
308.15 K, x1 = 1 | 1149.3 | 96.74
313.15 K, x1 = 0.0813 | 844.6 | 2.83
313.15 K, x1 = 0.1595 | 889.5 | 3.98
313.15 K, x1 = 0.2402 | 929.8 | 5.46
313.15 K, x1 = 0.35 | 976.9 | 8.16
313.15 K, x1 = 0.4403 | 1009.9 | 11.18
313.15 K, x1 = 0.5597 | 1047.7 | 16.39
313.15 K, x1 = 0.6503 | 1072.7 | 21.49
313.15 K, x1 = 0.7398 | 1094.7 | 28
313.15 K, x1 = 0.8502 | 1118.8 | 40
313.15 K, x1 = 0.9399 | 1136.1 | 56.6
313.15 K, x1 = 1 | 1146.5 | 75.12
318.15 K, x1 = 0.0813 | 840.2 | 2.44
318.15 K, x1 = 0.1595 | 885.3 | 3.47
318.15 K, x1 = 0.2402 | 925.8 | 4.81
318.15 K, x1 = 0.35 | 973.4 | 7.15
318.15 K, x1 = 0.4403 | 1006.6 | 9.72
318.15 K, x1 = 0.5597 | 1044.5 | 14.08
318.15 K, x1 = 0.6503 | 1069.6 | 18.26
318.15 K, x1 = 0.7398 | 1091.8 | 23.5
318.15 K, x1 = 0.8502 | 1116.1 | 33
318.15 K, x1 = 0.9399 | 1133.5 | 44.4
318.15 K, x1 = 1 | 1143.8 | 56.28
323.15 K, x1 = 0.0813 | 836 | 2.16
323.15 K, x1 = 0.1595 | 881.2 | 3.06
323.15 K, x1 = 0.2402 | 921.9 | 4.26
323.15 K, x1 = 0.35 | 969.7 | 6.32
323.15 K, x1 = 0.4403 | 1003.1 | 8.53
323.15 K, x1 = 0.5597 | 1041.3 | 12.21
323.15 K, x1 = 0.6503 | 1066.5 | 15.68
323.15 K, x1 = 0.7398 | 1088.9 | 19.7
323.15 K, x1 = 0.8502 | 1113.4 | 27.2
323.15 K, x1 = 0.9399 | 1130.9 | 36.6
323.15 K, x1 = 1 | 1141.2 | 45.17
